# Results: US11491122B2, “Use of a combination of Adelmidrol and hyaluronic acid in the treatment of pain caused by osteoarthritis and epithelial dysfunctions” (Epitech Group S.p.A., priority 2014, dated 2022)
# Experiments:
# [1] = test system: HaCaT cells; assay: Endogenous levels of AEA, 2-AG, PEA and OEA in HaCaT cells stimulated with Adelmidrol (LC-APCI-MS); assay type: cell-based, human; conditions: Adelmidrol 10 μM, 24 hours
# Procedure: Cultured human keratinocytes, HaCaT, were grown in DMEM (Dulbecco's Modified Eagle Medium) supplemented with glutamine (2 mM), penicillin (400 U/ml), streptomycin ([…]), 10% FBS (Fetal Bovine Serum), in the presence of 5% CO2 and at 37° C. Thereafter, cells plated in 6-well multi-wells (9×10^5/well), once 70% confluence had been reached, were stimulated with Adelmidrol, 10 μM, or carrier (Ctrl, 0.05% methanol) for 24 hours in the presence of 5% CO2 at 37° C. After 24 hours, the cells and the surnatants were homogenized in 5 vol. of a chloroform/methanol TRIS-HCl 50 mM pH 7.4 (2:1:1) solution containing 10 pmol of [^2H]8anandamide (AEA) and 50 pmol of [^2H]52-arachidonoylglycerol (2-AG), [^2H]4palmitoylethanolamide (PEA) and [^2H]2oleoylethanolamide (OEA) (Bisogno et al., 1997). The organic-lipidic phase obtained from the four extractions with chloroform was subjected to purification by silica column chromatography, eluted by increasing concentrations of methanol in chloroform. The chloroform/methanol 90:10 fraction containing AEA, 2-AG, PEA and OEA was analyzed by liquid chromatography coupled to mass spectrometry using chemical ionization at atmospheric pressure (LC-APCI-MS) (Marsicano et al., 2002). The equipment used includes a Shimadzu HPLC (LC-10ADVP) coupled with a Shimadzu spectrometer (LCMS-2010) via a Shimadzu APCI interface. The ionization source temperature is 400° C. and a Phenomenex reverse phase HPLC column (C-18, 5 microns, 150×4.6 mm) is used. The mobile phase, consisting of a mixture of methanol/water/acetic acid (85/15/0.1%), passes through the column at a rate of 1 ml/min. The mass spectrum determination is carried out according to the selected ion monitoring (SIM) [Di Marzo et al. Nature 2001; 410:822-825]. Selected ions correspond to mass/charge values (m/z) of 356 and 348 (molecular ions of deuterated and non-deuterated AEA), 384.35 and 379.35 (molecular ions of deuterated and non-deuterated 2-AG), 304 and 300 (molecular ions of deuterated and non-deuterated PEA), 328 and 326 (molecular ions of deuterated and non-deuterated OEA). The quantity expressed as pmol/mg of lipid extract were compared using ANOVA followed by the Student-Newman-Keuls test.
# [2] = target: T1, FAAH (Rattus norvegicus, UniProt P97612); assay: Maximum reduction of the activity of the PEA-degrading enzyme FAAH, rat brain membrane homogenates; assay type: biochemical
# T1 construct: was also measured using homogenates rat brain membranes; from tissue; host or cells: rat brain membrane homogenates
# T1 sequence (P97612 1-579): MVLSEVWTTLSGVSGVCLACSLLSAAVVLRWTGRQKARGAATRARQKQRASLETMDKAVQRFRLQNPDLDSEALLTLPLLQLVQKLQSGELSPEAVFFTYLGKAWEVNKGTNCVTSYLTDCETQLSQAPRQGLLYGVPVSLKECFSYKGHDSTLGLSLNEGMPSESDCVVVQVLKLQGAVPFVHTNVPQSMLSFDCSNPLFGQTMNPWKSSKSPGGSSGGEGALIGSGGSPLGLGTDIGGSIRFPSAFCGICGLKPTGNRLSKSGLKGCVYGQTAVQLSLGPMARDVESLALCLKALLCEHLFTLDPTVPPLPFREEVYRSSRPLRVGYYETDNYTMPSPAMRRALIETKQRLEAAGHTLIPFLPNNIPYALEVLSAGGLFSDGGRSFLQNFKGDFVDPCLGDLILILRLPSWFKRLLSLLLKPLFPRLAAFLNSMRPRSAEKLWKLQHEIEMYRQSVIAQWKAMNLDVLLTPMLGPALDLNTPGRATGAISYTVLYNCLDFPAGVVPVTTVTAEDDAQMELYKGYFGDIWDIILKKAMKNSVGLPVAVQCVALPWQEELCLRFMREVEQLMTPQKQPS
# Procedure: (§1) The maximum reduction of the activity of the palmitoylethanolamide-degrading enzymes (NAAA and FAAH) was also measured using homogenates rat brain membranes [Ueda N et al Chem Phys Lipids. 2000 November; 108(1-2):107-21; Tsuboi K. Et al J Biol Chem. 2005 March 25; 280(12):11082-92].
# [3] = target: T2, NAAA (Rattus norvegicus, UniProt Q5KTC7); assay: Maximum reduction of the activity of the PEA-degrading enzyme NAAA, rat brain membrane homogenates; assay type: biochemical
# T2 construct: was also measured using homogenates rat brain membranes; from tissue; host or cells: rat brain membrane homogenates
# T2 sequence (Q5KTC7 131-362 limits assumed): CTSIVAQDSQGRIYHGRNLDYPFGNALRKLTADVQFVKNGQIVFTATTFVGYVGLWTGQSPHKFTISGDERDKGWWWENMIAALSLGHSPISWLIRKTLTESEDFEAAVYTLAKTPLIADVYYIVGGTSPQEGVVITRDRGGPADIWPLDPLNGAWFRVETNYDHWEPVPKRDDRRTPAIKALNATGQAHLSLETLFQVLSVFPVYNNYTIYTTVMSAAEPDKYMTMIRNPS
# T2 sequence (Q5KTC7 34-130 limits assumed): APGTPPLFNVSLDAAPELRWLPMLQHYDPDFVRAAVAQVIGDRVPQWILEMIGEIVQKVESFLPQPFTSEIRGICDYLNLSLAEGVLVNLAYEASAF
# Procedure: as §1
# [4] = test system: knee osteoarthritis induced by monosodium iodoacetate (MIA); assay: Osteoarthritis induced by sodium monoiodoacetate: knee edema by digital caliper; assay type: in vivo, rat; conditions: intra-articular Adelmidrol 1.5, 15 and 150 μg/injection, days 1, 8, 15; dose-dependent, evident at all analyzed times
# Procedure: (§2) The experiments were conducted using adult male rats of the Wistar strain (weight 200-250 grams) supplied by Harlan Italy, put in enclosures for a week in standard dietary and environmental conditions (temperature 21±1° C., humidity 60±10%, light 12 hours a day and water and food ad libitum) before being used in the experiments. […] MIA acts locally by inhibiting glycolysis, destroying the metabolism of chondrocytes and producing cartilage degeneration. At the time of the induction of osteoarthritis, MIA was dissolved in sterile saline. Before carrying out the intra-articular administration, the rats were anesthetized with pentobarbital sodium dissolved in saline at the dose of 60 mg/kg, in an administration volume of 0.2 ml/hg intraperitoneally (i.p.). […]
# In order to evaluate the formation of the edema in the right knee of the animals after MIA injection, a digital manual slide caliper (measuring capacity 0-150 mm; resolution: 0.01 mm; ROHS Compliant Electronic Digital Caliper—2 Biological Instruments SNC, Italy) was used. […] The edema was calculated as the difference between the […] of the right knee and left knee. […]
# The various parameters are measured at different times in relation to the parameter itself (e.g. inflammatory parameters are evaluated only in the first week since the MIA, pain is always evaluated before and 60 min. after the administration of Adelmidrol).
# [5] = test system: TNF-α; assay: Osteoarthritis induced by sodium monoiodoacetate: TNF-α in the synovial fluid (ELISA); assay type: in vivo, rat; conditions: intra-articular Adelmidrol, MIA osteoarthritic rats
# Procedure: as §2, with “(i.p.). The animals that received the MIA injection in their right knee represent the osteoarthritic (OA) group.” for “(i.p.).”
# The determination of TNF-α levels in the synovial fluid was made using an ELISA (Enzyme Linked Immuno-Sorbent-Assay) immunoenzymatic assay using a commercial kit from Biosource International Inc. The method uses a procedure in which the antigen is trapped between two layers of antibodies and for this reason it is called an ELISA sandwich. […] Following the enzymatic reaction, a product is generated whose staining intensity is measured spectrophotometrically and is directly proportional to the concentration of TNF-α in the samples. […]
# [6] = test system: patients with Bladder Pain Syndrome (BPS); assay: Intravesical instillation in patients with Painful Bladder Syndrome (BPS); assay type: in vivo, human; conditions: 7 female BPS patients
# Procedure: A sterile solution containing 2% Adelmidrol and 0.1% hyaluronic acid sodium salt was instilled into the bladder of no. 7 female patients through catheter after the complete emptying of the bladder itself. […] Most of the times, the patients had comorbidity with other pelvic diseases (vulvar vestibulitis 4/7; IBS (irritable bowel syndrome) 2/7; Fibromyalgia Syndrome 1/7, Recurrent Urinary Tract Infections (RUTI) 3/7).
# Treatments were carried out as attack therapy (one intravesical instillation per week for 8 weeks), followed by maintenance therapy (one instillation per month for 6 months).
# Using a dedicated diary, the frequency of urination (measured as the number of urinations in 12 hours), both during the day and at night, and the discomfort with bladder full were controlled, analyzing the pain, the feeling of weight and the burning in the pelvic area (all three parameters were measured by means of numerical scale VAS, before treatment, at the end of the attack therapy and at the end of the maintenance therapy).
# [7] = experimental animals, oral administration; cited from earlier work
# [8] = cited from earlier work
compound,measurement,setting,value
"O=C(CCCCCCCC(=O)NCCO)NCCO [Adelmidrol, N,N′-Bis(2-hydroxyethyl)nonandiamide]",levels of 2-AG in HaCaT cells,[1]; vs Ctrl,No significant variation
same,levels of AEA in HaCaT cells,[1]; vs Ctrl,No significant variation
same,levels of OEA in HaCaT cells,[1]; vs Ctrl,No significant variation
same,levels of PEA in HaCaT cells,"[1]; basal values 31.6±5.6, n=6, P<0.0001",66.4±9.6 pmol/mg of lipid extract
same,inhibition of the activity of FAAH (in words),[2],does not inhibit
same,inhibition at 50 µM,"[2]; Treatment with Adelmidrol 50 μM, Control 21.22 ± 3.18%, read-out: Maximum inhibition of the enzymatic activity (expressed as IC50), Enzyme FAAH",20.1 ± 4.12%
same,inhibition of the activity of NAAA (in words),[3],does not inhibit
same,inhibition at 50 µM,"[3]; Treatment with Adelmidrol 50 μM, Control 11.43 ± 1.72%, read-out: Maximum inhibition of the enzymatic activity (expressed as IC50), Enzyme NAAA",11.3 ± 2.26%
same,anti-inflammatory effect (knee edema),[4],strong anti-inflammatory effect
same,levels of TNF-α in the synovial fluid,[5],reduction
same,"all the parameters evaluated (urination frequency, pain, weight, burning) after treatment",[6],marked improvement
same,LD50,[7],2-3 g/kg body weight
same,solubility in lipids,[8],good solubility in lipids
same,solubility in water,[8],high solubility in water
